Data reported in the NIST ThermoML archive (doi:10.1016/j.tca.2005.08.034).

Experiments:
[1] = xn = mol fraction of the nth substance listed; settings: 298.15 K; for surface tension liquid-gas: Drop volume; for mass density / speed of sound: 101.3 kPa, Liquid; for mass density: Vibrating tube method
[2] = excess molar enthalpy (molar enthalpy of mixing); xn = mol fraction of the nth substance listed; settings: 298.15 K, 101.3 kPa, Liquid, Flow calorimetry
[3] = refractive index (Na D-line) (dimensionless); φn = volume fraction of the nth substance listed; settings: 298.15 K, 101.3 kPa, Liquid, refractometer
[4] = 298.15 K; for surface tension liquid-gas: Drop volume; for speed of sound / mass density: 101.33 kPa, Liquid; for mass density: Vibrating tube method
[5] = refractive index (Na D-line) (dimensionless); settings: 298.15 K; 101.33 kPa; Liquid; refractometer

CC1CCCO1 (configuration not stated) [2-methyltetrahydrofuran] + Clc1ccccc1
Settings	excess molar enthalpy [kcal/mol]	mass density [kg/m3]	refractive index	speed of sound [m/s]	surface tension liquid-gas [mN/m]
[1], x1 = 0.0378	–	1092.14	–	1266.6	–
[1], x1 = 0.0483	–	–	–	–	32.6
[1], x1 = 0.0969	–	–	–	–	32.19
[1], x1 = 0.0995	–	1077.75	–	1264.3	–
[1], x1 = 0.1875	–	1056.86	–	1261.1	–
[1], x1 = 0.1993	–	–	–	–	31.31
[1], x1 = 0.2987	–	1030.2	–	1256.5	–
[1], x1 = 0.2999	–	–	–	–	30.45
[1], x1 = 0.3922	–	1007.36	–	1251.9	–
[1], x1 = 0.3988	–	–	–	–	29.61
[1], x1 = 0.4947	–	981.73	–	1246.3	–
[1], x1 = 0.503	–	–	–	–	28.74
[1], x1 = 0.5973	–	955.71	–	1239.9	–
[1], x1 = 0.6008	–	–	–	–	27.92
[1], x1 = 0.6435	–	943.88	–	1236.6	–
[1], x1 = 0.7024	–	–	–	–	27.09
[1], x1 = 0.8003	–	902.98	–	1223.5	–
[1], x1 = 0.8028	–	–	–	–	26.27
[1], x1 = 0.9051	–	–	–	–	25.44
[1], x1 = 0.9074	–	874.39	–	1212.9	–
[1], x1 = 0.9393	–	865.76	–	1209.6	–
[1], x1 = 0.9496	–	–	–	–	25.08
[2], x1 = 0.058	-0.0203	–	–	–	–
[2], x1 = 0.105	-0.0402	–	–	–	–
[2], x1 = 0.198	-0.0793	–	–	–	–
[2], x1 = 0.294	-0.114	–	–	–	–
[2], x1 = 0.391	-0.137	–	–	–	–
[2], x1 = 0.488	-0.15	–	–	–	–
[2], x1 = 0.585	-0.149	–	–	–	–
[2], x1 = 0.683	-0.137	–	–	–	–
[2], x1 = 0.784	-0.107	–	–	–	–
[2], x1 = 0.883	-0.0626	–	–	–	–
[2], x1 = 0.932	-0.0394	–	–	–	–
[3], φ1 = 0.0479	–	–	1.5165	–	–
[3], φ1 = 0.0961	–	–	1.5112	–	–
[3], φ1 = 0.1979	–	–	1.49985	–	–
[3], φ1 = 0.2981	–	–	1.48853	–	–
[3], φ1 = 0.3966	–	–	1.47724	–	–
[3], φ1 = 0.5008	–	–	1.46501	–	–
[3], φ1 = 0.5987	–	–	1.45323	–	–
[3], φ1 = 0.7006	–	–	1.44079	–	–
[3], φ1 = 0.8014	–	–	1.4283	–	–
[3], φ1 = 0.9043	–	–	1.41518	–	–
[3], φ1 = 0.9492	–	–	1.40941	–	–

c1ccccc1 [benzene]
Settings	mass density [kg/m3]	refractive index	speed of sound [m/s]	surface tension liquid-gas [mN/m]
[4]	873.39	–	1299.2	28.57
[5]	–	1.49774	–	–

Fc1ccccc1 [fluorobenzene]
Settings	mass density [kg/m3]	refractive index	speed of sound [m/s]	surface tension liquid-gas [mN/m]
[4]	1018.79	–	1166	27.43
[5]	–	1.4629	–	–

Clc1ccccc1 [chlorobenzene]
Settings	mass density [kg/m3]	refractive index	speed of sound [m/s]	surface tension liquid-gas [mN/m]
[4]	1100.94	–	1267.9	33
[5]	–	1.52176	–	–
